Results published in PubChem BioAssay AID504532 (Sanford-Burnham Center for Chemical Genomics, 2011).
The source made the active and inactive calls.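 The calls were made as follows: active = mean EC50 below 10 µM; inactive = the rest.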

Molecular target: Type-1 angiotensin II receptor (Homo sapiens) (UniProt P30556)
Test: AT1 receptor agonist selectivity testing, SAR follow-up, selectivity assay for APJ receptor agonist project, cell-based, CHO-K1 AGTR1, beta-arrestin, luminescence, set 5 (AID 504532)
Details: CHO-K1 AGTR1 beta-arrestin PathHunter, 90 min

Type-1 angiotensin II receptor (Homo sapiens), sequence (P30556 whole entry, looked up): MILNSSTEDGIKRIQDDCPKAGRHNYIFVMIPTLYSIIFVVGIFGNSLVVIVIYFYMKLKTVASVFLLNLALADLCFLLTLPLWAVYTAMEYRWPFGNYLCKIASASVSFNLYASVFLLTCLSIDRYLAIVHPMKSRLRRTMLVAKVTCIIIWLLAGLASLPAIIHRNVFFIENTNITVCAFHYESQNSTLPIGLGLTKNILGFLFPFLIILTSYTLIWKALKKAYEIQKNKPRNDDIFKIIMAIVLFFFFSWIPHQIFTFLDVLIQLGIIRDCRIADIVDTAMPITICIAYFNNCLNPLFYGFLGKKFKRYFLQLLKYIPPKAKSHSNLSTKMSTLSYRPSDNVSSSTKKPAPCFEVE

SMILES | EC50
CC1=CC(=O)C(C2CCCCC2)=C/C1=N/OS(=O)(=O)c1cccc(C)c1 | > 79 µM (inactive)
Cc1cc(N=O)c(C(C)C)cc1O | > 79 µM (inactive)
CC1=CC(=O)C(C(C)(C)C)=C/C1=N\OS(=O)(=O)C1CCCCC1 | > 79 µM (inactive)
CC1=CC(=O)C(C2CCCCC2)=C/C1=N/OS(=O)(=O)c1cccc(Br)c1 | > 79 µM (inactive)
COc1cccc(S(=O)(=O)O/N=C2\C=C(C3CCCCC3)C(=O)C=C2C)c1 | > 79 µM (inactive)
CC1=CC(=O)C(C(C)(C)C)=C/C1=N/OS(=O)(=O)c1cccc(C#N)c1 | > 79 µM (inactive)
CC1=CC(=O)C(C(C)(C)C)=C/C1=N/OS(=O)(=O)c1cccc(Br)c1 | > 79 µM (inactive)
CC1=CC(=O)C(C(C)C)=C/C1=N\OS(=O)(=O)C1CCCCC1 | > 79 µM (inactive)
COc1cccc(S(=O)(=O)O/N=C2\C=C(C(C)C)C(=O)C=C2C)c1 | > 79 µM (inactive)
N#Cc1ccc(S(=O)(=O)ON=C2C=CC(=O)C(c3ccccc3)=C2)cc1 | > 79 µM (inactive)
COc1cccc(S(=O)(=O)O/N=C2\C=C(C(C)(C)C)C(=O)C=C2C)c1 | > 79 µM (inactive)
CC1=CC(=O)C(C(C)(C)C)=C/C1=N\OS(=O)(=O)c1c(Cl)cccc1Cl | > 79 µM (inactive)
CC1=CC(=O)C(C2CCCCC2)=C/C1=N\OS(=O)(=O)c1cccc(Cl)c1 | > 79 µM (inactive)
CC1=CC(=O)C(C(C)(C)C)=C/C1=N/OS(=O)(=O)c1cccc(C)c1 | > 79 µM (inactive)
CC1=CC(=O)C(C(C)C)=C/C1=N/OS(=O)(=O)c1cccc(C)c1 | > 79 µM (inactive)
CC(C)C1=CC(=NOS(=O)(=O)c2ccccc2)C=CC1=O | > 79 µM (inactive)

SMILES | EC50
CC1=CC(=O)C(C(C)C)=C/C1=N\OS(=O)(=O)c1cccc(Cl)c1 | > 79 µM (inactive)
CC1=CC(=O)C(C(C)C)=C/C1=N\OS(=O)(=O)c1ccccc1Cl | > 79 µM (inactive)
CC1=CC(=O)C(C(C)C)=C/C1=N/OS(=O)(=O)c1cccc(C#N)c1 | > 79 µM (inactive)
CC1=CC(=O)C(C(C)C)=C/C1=N/OS(=O)(=O)c1cccc(Br)c1 | > 79 µM (inactive)
CC1=CC(=O)C(C2CCCCC2)=C/C1=N/OS(=O)(=O)c1cccc(C#N)c1 | > 79 µM (inactive)
CC1=CC(=O)C(C2CCCCC2)=C/C1=N\OS(=O)(=O)c1cn(C)cn1 | > 79 µM (inactive)
CC1=CC(=O)C(C(C)(C)C)=C/C1=N\OS(=O)(=O)c1ccccc1Cl | > 79 µM (inactive)
Cc1cc(O)c(C(C)(C)C)cc1N=O | > 79 µM (inactive)
CC1=CC(=O)C(C(C)(C)C)=C/C1=N\OS(=O)(=O)c1cn(C)cn1 | > 79 µM (inactive)
CC1=CC(=O)C(C2CCCCC2)=C/C1=N\OS(=O)(=O)c1ccccc1Cl | > 79 µM (inactive)
O=C1C=CC(=NOS(=O)(=O)c2ccccc2)C=C1c1ccccc1 | > 79 µM (inactive)
CC1=CC(=O)C(C(C)C)=C/C1=N\OS(=O)(=O)c1cn(C)cn1 | > 79 µM (inactive)
CC1=CC(=O)C(C(C)(C)C)=C/C1=N\OS(=O)(=O)c1cccc(Cl)c1 | > 79 µM (inactive)
CC1=CC(=O)C(C2CCCCC2)=C/C1=N\OS(=O)(=O)c1c(Cl)cccc1Cl | > 79 µM (inactive)
CC1=CC(=O)C(C(C)C)=C/C1=N\OS(=O)(=O)c1c(Cl)cccc1Cl | > 79 µM (inactive)
